Tests used:
IRAK1 and IRAK4 = conditions: cited from earlier work
UMSCC1 cells = assay: Flow cytometry for cleaved caspase-3 after IRAK1 inhibitor; format: cell-based, human; conditions: 72 hours, vs DMSO
Procedure: Flow cytometry for Cleaved Caspase-3. Lentivirally transduced cells were plated at equal densities and collected 48 hours later. Cells were fixed and prepped following the BD FITC Active Caspase-3 Apoptosis kit protocol (BD Biosciences). […] Analysis was performed on a BD FacsCanto and data analyzed on FlowJo software (Tree Star, Ashland, Oreg., USA). Experiments were performed 3 times with standard error of the mean (SEM) represented. IRAK1 inhibitor. UMSCC1 cells were plated at equal densities and IRAK1 inhibitor (IRAK-1/4 inhibitor, 15409, Sigma-Aldrich, St. Louis, Mo., USA) added the same day for caspase-3 flow cytometry experiments. DMSO was added in equal volume for a control. Cells and media were collected 72 hours later and prepared and analyzed as above. For the time-course experiment, cells were plated and inhibitor was added the following day, with protein collected at 24, 48, and 72 hours and analyzed by western blot for IRAK1 inhibition.

melanoma cells = conditions: in vitro and in vivo; cited from earlier work
IRAK1 = molecular target: T1, IRAK1 (Homo sapiens, UniProt P51617); assay: Western blot for phospho-IRAK1 after IRAK-1/4 inhibitor treatment (time course); format: cell-based; conditions: UMSCC1 and UMSCC47 cells
T1 construct: endogenous in cells; host or cells: UMSCC1 and UMSCC47
Procedure: Western blotting. Whole cell lysates were harvested using Laemmli buffer and a total of 20 μg of protein was analyzed as described previously. Membranes were probed with DEK (1:1000, BD Biosciences, San Jose, Calif., USA), IRAK1 (1:1000, Santa Cruz Biotechnology, Dallas, Tex., USA (sc-7883)), TRAF6 (1:1000, Santa Cruz (sc-7221)), phospho-IRAK1 (Thr209, 1:800, Assay Biotechnology Company (A1074), Sunnyvale, Calif., USA), phospho-p38 (1:500, Cell Signaling Technologies (4361)), p38 (1:1000, Cell Signaling Technologies (9212)), phospho-ERK1/2 (1:1000, Cell Signaling Technologies (4377)), ERK1/2 (1:1000, Cell Signaling Technologies (4695)), phospho-IKKa/r3 (1:500, Cell Signaling Technologies (2697)), IKKa (1:1000, Cell Signaling Technologies (2682)), phospho-hcBa (1:500, Cell Signaling Technologies (9246)), hcBa (1:1000, Cell Signaling Technologies (4812)), a-tubulin-HRP (1:10,000 Cell Signaling Technologies (9099)), actin (1:10,000 a gift from James Lessard), and GAPDH (1:1000, Cell Signaling Technologies (5174)).
IRAK1 inhibitor. […]
Cells and media were collected 72 hours later and prepared and analyzed as above. For the time-course experiment, cells were plated and inhibitor was added the following day, with protein collected at 24, 48, and 72 hours and analyzed by western blot for IRAK1 inhibition.

MDS = conditions: cited from earlier work

T1 sequence (P51617 whole entry): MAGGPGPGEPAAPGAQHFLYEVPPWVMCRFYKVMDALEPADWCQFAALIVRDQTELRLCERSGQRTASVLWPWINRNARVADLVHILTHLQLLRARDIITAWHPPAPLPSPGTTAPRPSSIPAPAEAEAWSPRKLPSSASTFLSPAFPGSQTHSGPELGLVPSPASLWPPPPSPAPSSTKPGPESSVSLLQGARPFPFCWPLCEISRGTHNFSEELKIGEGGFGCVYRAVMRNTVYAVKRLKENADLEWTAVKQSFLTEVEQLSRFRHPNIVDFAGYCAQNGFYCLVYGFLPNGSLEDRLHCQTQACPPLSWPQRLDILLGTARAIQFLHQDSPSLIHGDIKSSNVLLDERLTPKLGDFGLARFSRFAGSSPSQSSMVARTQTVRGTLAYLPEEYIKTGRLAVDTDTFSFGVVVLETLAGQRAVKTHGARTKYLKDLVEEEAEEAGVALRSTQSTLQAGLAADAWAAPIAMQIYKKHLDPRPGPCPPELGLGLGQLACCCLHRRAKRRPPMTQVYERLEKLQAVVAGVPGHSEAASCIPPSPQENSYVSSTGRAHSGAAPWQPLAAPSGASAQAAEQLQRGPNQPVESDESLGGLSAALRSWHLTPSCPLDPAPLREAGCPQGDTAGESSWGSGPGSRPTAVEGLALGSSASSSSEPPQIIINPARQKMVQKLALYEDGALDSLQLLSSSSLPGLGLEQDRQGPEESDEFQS

O=C(Nc1nc2ccccc2n1CCN1CCOCC1)c1cccc([N+](=O)[O-])c1 [IRAK-1/4 inhibitor, N-(2-morpholinylethyl)-2-(3-nitrobenzoylamido)-benzimidazole]
kinase selectivity (IRAK1 and IRAK4): selective for IRAK1 and IRAK4 and shows little specificity for other kinases
apoptosis (cleaved caspase-3) (UMSCC1 cells): Significantly increased apoptosis
apoptosis (cleaved caspase-3) (UMSCC1 cells; listed as IRAK1-inhibitor): increases apoptosis
apoptosis in melanoma cells (melanoma cells): increase apoptosis
IRAK1 activation (phosphorylation of IRAK1, western blot) (IRAK1; 1 μM or 10 μM final concentrations, indicated time-points, vs DMSO): reduces IRAK1 activation
activation of IRAK1 (phosphorylation of IRAK1, western blot) (IRAK1; 10 μM, 24-72 hours post-treatment): attenuated activation of IRAK1
signaling and cell viability in MDS (MDS): inhibit signaling and cell viability
